{"source": "paper PMC9954146", "about": "“Anti-Leukaemic Activity of Rilpivirine Is Mediated by Aurora A Kinase Inhibition” (Cancers, 2023)", "test_in_all_cases": "Kinase panel", "format_in_all_cases": "biochemical", "conditions_in_all_cases": "read-out: % Residual Activity", "key": {"ErbB4(h)": {"molecular_target": "T1, ErbB4(h) (Homo sapiens, UniProt Q15303)", "T1 construct": "purchased Eurofins (KinaseProfiler)", "summary_of_the_method": "(§1)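 For each panel kinase, rilpivirine inhibition is measured by radioactive phosphate transfer with ATP at that enzyme's Km, […].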"}, "OSR1(h)": {"molecular_target": "T2, OSR1(h) (Homo sapiens, UniProt O95747)", "T2 construct": "purchased Eurofins (KinaseProfiler)", "summary_of_the_method": "as §1"}, "HIPK2(h)": {"molecular_target": "T3, HIPK2(h) (Homo sapiens, UniProt Q9H2X6)", "T3 construct": "purchased Eurofins (KinaseProfiler)", "summary_of_the_method": "as §1"}, "EphA8(h)": {"molecular_target": "T4, EphA8(h) (Homo sapiens, UniProt P29322)", "T4 construct": "purchased Eurofins (KinaseProfiler)", "T4 sequence (P29322 28-1005)": "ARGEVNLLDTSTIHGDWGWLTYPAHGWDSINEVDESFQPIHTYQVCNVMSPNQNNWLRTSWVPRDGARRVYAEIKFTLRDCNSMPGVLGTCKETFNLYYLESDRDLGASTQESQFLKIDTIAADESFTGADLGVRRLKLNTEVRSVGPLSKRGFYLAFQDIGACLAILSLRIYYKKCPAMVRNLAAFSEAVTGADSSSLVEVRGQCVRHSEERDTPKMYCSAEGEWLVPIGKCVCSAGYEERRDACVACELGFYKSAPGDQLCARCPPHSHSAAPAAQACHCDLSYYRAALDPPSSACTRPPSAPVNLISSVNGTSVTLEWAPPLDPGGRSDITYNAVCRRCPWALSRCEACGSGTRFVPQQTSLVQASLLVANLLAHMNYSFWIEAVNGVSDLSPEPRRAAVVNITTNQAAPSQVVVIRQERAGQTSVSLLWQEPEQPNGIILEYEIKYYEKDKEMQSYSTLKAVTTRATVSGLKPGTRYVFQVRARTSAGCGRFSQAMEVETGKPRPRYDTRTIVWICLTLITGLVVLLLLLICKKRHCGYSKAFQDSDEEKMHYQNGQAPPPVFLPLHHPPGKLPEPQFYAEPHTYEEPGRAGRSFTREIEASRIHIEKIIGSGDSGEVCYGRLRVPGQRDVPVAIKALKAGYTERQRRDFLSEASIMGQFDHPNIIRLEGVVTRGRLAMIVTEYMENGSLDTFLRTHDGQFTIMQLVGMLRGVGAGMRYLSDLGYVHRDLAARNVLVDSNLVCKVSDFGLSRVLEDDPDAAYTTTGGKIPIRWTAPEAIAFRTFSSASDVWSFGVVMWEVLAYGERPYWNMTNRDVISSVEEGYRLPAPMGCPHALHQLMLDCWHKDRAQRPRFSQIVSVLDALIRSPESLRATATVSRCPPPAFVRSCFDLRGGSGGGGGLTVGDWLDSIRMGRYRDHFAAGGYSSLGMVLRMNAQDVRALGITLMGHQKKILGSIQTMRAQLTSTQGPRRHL", "summary_of_the_method": "as §1"}, "SIK3(h)": {"molecular_target": "T5, SIK3(h) (Homo sapiens, UniProt Q9Y2K2)", "T5 construct": "purchased Eurofins (KinaseProfiler)", "summary_of_the_method": "as §1"}, "PAK6(h)": {"molecular_target": "T6, PAK6(h) (Homo sapiens, UniProt Q9NQU5)", "T6 construct": "purchased Eurofins (KinaseProfiler)", "summary_of_the_method": "as §1"}, "SRPK1(h)": {"molecular_target": "T7, SRPK1(h) (Homo sapiens, UniProt Q96SB4)", "T7 construct": "purchased Eurofins (KinaseProfiler)", "summary_of_the_method": "as §1"}, "CaMKIIβ(h)": {"molecular_target": "T8, CaMKIIβ(h) (Homo sapiens, UniProt Q13554)", "T8 construct": "purchased Eurofins (KinaseProfiler)", "summary_of_the_method": "as §1"}, "PKCζ(h)": {"molecular_target": "T9, PKCζ(h) (Homo sapiens, UniProt Q05513)", "T9 construct": "purchased Eurofins (KinaseProfiler)", "summary_of_the_method": "as §1"}, "ErbB2(h)": {"molecular_target": "T10, ErbB2(h) (Homo sapiens, UniProt P04626)", "T10 construct": "purchased Eurofins (KinaseProfiler)", "summary_of_the_method": "as §1"}, "Aurora-C(h)": {"molecular_target": "T11, Aurora-C(h) (Homo sapiens, UniProt Q9UQB9)", "T11 construct": "purchased Eurofins (KinaseProfiler)", "summary_of_the_method": "as §1"}, "SGK(h)": {"molecular_target": "T12, SGK(h) (Homo sapiens, UniProt O00141)", "T12 construct": "purchased Eurofins (KinaseProfiler)", "summary_of_the_method": "as §1"}, "Blk(h)": {"molecular_target": "T13, Blk(h) (Homo sapiens, UniProt P51451)", "T13 construct": "purchased Eurofins (KinaseProfiler)", "summary_of_the_method": "as §1"}, "CaMKIγ(h)": {"molecular_target": "T14, CaMKIγ(h) (Homo sapiens, UniProt Q96NX5)", "T14 construct": "purchased Eurofins (KinaseProfiler)", "summary_of_the_method": "as §1"}, "NLK(h)": {"molecular_target": "T15, NLK(h) (Homo sapiens, UniProt Q9UBE8)", "T15 construct": "purchased Eurofins (KinaseProfiler)", "summary_of_the_method": "as §1"}, "Flt3(h)": {"molecular_target": "T16, Flt3(h) (Homo sapiens, UniProt P36888)", "T16 construct": "purchased Eurofins (KinaseProfiler)", "summary_of_the_method": "as §1"}, "NDR2(h)": {"molecular_target": "T17, NDR2(h) (Homo sapiens, UniProt Q9Y2H1)", "T17 construct": "purchased Eurofins (KinaseProfiler)", "summary_of_the_method": "as §1"}, "ROCK-II(r)": {"molecular_target": "T18, ROCK-II(r) (Rattus norvegicus, UniProt Q62868)", "T18 construct": "purchased Eurofins (KinaseProfiler)", "T18 sequence (Q62868 2-543 limits assumed)": "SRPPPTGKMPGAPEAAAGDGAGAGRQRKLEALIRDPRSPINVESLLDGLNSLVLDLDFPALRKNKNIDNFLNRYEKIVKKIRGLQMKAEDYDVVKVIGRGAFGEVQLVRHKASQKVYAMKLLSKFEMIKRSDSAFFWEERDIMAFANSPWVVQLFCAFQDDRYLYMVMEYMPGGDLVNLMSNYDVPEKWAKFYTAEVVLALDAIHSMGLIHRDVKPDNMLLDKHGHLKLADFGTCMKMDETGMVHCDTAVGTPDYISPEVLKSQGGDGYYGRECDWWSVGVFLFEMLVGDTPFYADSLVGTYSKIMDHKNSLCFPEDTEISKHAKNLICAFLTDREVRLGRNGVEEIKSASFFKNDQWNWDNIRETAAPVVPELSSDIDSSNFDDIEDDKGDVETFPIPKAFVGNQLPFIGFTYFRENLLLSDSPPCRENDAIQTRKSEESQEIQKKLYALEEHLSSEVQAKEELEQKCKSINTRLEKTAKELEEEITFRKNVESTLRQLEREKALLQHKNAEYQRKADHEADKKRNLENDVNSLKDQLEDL", "summary_of_the_method": "as §1"}, "CK1γ1(h)": {"molecular_target": "T19, CK1γ1(h) (Homo sapiens, UniProt Q9HCP0)", "T19 construct": "purchased Eurofins (KinaseProfiler)", "summary_of_the_method": "as §1"}, "NEK9(h)": {"molecular_target": "T20, NEK9(h) (Homo sapiens, UniProt Q8TD19)", "T20 construct": "purchased Eurofins (KinaseProfiler)", "summary_of_the_method": "as §1"}, "FGFR2(h)": {"molecular_target": "T21, FGFR2(h) (Homo sapiens, UniProt P21802)", "T21 construct": "purchased Eurofins (KinaseProfiler)", "summary_of_the_method": "as §1"}, "Flt1(h)": {"molecular_target": "T22, Flt1(h) (Homo sapiens, UniProt P17948)", "T22 construct": "purchased Eurofins (KinaseProfiler)", "summary_of_the_method": "as §1"}, "DYRK1B(h)": {"molecular_target": "T23, DYRK1B(h) (Homo sapiens, UniProt Q9Y463)", "T23 construct": "purchased Eurofins (KinaseProfiler)", "summary_of_the_method": "as §1"}, "cKit(D816H)(h)": {"molecular_target": "T24, cKit(D816H)(h) (Homo sapiens, UniProt P10721, D816H)", "T24 construct": "purchased Eurofins (KinaseProfiler)", "T24 sequence (P10721 26-976 D816H)": "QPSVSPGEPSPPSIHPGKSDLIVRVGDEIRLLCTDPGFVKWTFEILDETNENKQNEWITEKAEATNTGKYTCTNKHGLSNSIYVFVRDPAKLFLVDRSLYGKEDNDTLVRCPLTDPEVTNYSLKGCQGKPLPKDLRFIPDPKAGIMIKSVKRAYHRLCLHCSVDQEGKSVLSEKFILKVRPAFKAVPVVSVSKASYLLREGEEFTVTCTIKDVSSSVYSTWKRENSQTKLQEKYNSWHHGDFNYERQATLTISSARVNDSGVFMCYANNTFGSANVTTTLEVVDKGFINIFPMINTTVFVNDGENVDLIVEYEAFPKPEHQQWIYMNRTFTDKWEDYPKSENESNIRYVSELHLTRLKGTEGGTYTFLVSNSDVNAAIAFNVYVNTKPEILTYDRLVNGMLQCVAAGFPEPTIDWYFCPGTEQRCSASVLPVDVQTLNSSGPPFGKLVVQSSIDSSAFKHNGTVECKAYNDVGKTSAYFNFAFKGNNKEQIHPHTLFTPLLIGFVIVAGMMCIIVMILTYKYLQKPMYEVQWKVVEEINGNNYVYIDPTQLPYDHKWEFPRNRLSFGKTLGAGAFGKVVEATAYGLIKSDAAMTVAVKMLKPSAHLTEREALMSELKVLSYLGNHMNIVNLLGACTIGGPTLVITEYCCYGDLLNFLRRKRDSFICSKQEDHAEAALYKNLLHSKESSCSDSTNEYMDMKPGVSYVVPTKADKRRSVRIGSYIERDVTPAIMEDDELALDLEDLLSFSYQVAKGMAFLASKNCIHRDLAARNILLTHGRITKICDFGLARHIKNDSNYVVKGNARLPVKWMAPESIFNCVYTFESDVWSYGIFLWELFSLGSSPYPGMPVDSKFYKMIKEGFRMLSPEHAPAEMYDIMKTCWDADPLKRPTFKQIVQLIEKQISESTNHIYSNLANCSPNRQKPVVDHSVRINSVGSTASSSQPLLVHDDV", "summary_of_the_method": "as §1"}, "LATS2(h)": {"molecular_target": "T25, LATS2(h) (Homo sapiens, UniProt Q9NRM7)", "T25 construct": "purchased Eurofins (KinaseProfiler)", "summary_of_the_method": "as §1"}, "Pim-3(h)": {"molecular_target": "T26, Pim-3(h) (Homo sapiens, UniProt Q86V86)", "T26 construct": "purchased Eurofins (KinaseProfiler)", "summary_of_the_method": "as §1"}, "Hck(h)": {"molecular_target": "T27, Hck(h) (Homo sapiens, UniProt P08631)", "T27 construct": "purchased Eurofins (KinaseProfiler)", "summary_of_the_method": "as §1"}, "STK32A(h)": {"molecular_target": "T28, STK32A(h) (Homo sapiens, UniProt Q8WU08)", "T28 construct": "purchased Eurofins (KinaseProfiler)", "summary_of_the_method": "as §1"}, "TAO1(h)": {"molecular_target": "T29, TAO1(h) (Homo sapiens, UniProt Q7L7X3)", "T29 construct": "purchased Eurofins (KinaseProfiler)", "summary_of_the_method": "as §1"}, "GRK7(h)": {"molecular_target": "T30, GRK7(h) (Homo sapiens, UniProt Q8WTQ7)", "T30 construct": "purchased Eurofins (KinaseProfiler)", "summary_of_the_method": "as §1"}, "TAF1L(h)": {"molecular_target": "T31, TAF1L(h) (Homo sapiens, UniProt Q8IZX4)", "T31 construct": "purchased Eurofins (KinaseProfiler)", "summary_of_the_method": "as §1"}, "[1]": {"molecular_target": "PI3 Kinase (p110a(E542K)/p85a)(h) (Homo sapiens, UniProt P42336, E542K)", "sequence (P42336 whole entry E542K)": "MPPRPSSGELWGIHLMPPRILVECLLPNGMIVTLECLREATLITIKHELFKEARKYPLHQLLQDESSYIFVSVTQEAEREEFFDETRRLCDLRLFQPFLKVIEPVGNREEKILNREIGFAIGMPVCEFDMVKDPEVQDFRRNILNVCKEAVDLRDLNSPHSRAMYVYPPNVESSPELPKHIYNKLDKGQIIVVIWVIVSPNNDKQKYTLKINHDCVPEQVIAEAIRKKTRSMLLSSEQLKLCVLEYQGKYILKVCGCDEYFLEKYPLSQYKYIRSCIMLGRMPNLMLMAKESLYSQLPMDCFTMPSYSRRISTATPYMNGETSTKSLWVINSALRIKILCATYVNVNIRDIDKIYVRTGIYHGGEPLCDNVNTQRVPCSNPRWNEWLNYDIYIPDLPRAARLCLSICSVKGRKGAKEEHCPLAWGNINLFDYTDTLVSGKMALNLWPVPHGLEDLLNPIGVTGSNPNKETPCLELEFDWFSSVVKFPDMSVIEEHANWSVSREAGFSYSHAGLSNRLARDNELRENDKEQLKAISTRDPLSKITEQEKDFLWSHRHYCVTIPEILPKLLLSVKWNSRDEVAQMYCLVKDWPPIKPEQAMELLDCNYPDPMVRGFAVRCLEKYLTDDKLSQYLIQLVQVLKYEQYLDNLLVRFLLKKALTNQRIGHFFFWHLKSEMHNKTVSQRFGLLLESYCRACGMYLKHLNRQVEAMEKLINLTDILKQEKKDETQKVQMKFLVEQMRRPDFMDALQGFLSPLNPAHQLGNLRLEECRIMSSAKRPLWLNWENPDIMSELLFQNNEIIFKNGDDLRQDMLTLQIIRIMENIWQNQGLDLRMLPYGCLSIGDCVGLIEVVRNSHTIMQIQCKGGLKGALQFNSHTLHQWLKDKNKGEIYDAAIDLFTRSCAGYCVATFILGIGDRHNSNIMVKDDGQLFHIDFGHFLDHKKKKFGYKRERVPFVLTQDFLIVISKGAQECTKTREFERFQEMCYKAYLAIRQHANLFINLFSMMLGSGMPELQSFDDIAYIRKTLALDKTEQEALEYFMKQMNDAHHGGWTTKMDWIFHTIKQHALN", "sequence (P27986 whole entry partner)": "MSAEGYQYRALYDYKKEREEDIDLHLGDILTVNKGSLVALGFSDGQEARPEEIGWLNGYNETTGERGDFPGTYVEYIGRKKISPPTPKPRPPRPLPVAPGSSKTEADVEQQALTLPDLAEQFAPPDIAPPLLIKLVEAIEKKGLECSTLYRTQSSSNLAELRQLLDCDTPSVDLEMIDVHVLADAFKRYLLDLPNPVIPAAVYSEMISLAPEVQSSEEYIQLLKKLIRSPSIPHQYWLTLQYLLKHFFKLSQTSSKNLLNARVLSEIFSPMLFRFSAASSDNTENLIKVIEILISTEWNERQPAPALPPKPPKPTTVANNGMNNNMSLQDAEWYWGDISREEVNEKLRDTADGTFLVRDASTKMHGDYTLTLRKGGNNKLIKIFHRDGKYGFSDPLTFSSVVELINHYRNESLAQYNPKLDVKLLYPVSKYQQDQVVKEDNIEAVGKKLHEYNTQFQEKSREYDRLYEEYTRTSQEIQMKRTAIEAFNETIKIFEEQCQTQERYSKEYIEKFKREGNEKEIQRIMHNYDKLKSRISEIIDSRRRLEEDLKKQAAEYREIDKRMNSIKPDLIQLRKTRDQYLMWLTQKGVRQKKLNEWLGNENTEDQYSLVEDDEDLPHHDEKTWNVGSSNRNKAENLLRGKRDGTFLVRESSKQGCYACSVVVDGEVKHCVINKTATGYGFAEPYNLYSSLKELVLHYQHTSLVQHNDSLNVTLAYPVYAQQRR", "summary_of_the_method": "as §1"}, "PKCβII(h)": {"molecular_target": "T32, PKCβII(h) (Homo sapiens, UniProt P05771)", "T32 construct": "purchased Eurofins (KinaseProfiler)", "T32 sequence (P05771 1-673 isoform P05771-2)": "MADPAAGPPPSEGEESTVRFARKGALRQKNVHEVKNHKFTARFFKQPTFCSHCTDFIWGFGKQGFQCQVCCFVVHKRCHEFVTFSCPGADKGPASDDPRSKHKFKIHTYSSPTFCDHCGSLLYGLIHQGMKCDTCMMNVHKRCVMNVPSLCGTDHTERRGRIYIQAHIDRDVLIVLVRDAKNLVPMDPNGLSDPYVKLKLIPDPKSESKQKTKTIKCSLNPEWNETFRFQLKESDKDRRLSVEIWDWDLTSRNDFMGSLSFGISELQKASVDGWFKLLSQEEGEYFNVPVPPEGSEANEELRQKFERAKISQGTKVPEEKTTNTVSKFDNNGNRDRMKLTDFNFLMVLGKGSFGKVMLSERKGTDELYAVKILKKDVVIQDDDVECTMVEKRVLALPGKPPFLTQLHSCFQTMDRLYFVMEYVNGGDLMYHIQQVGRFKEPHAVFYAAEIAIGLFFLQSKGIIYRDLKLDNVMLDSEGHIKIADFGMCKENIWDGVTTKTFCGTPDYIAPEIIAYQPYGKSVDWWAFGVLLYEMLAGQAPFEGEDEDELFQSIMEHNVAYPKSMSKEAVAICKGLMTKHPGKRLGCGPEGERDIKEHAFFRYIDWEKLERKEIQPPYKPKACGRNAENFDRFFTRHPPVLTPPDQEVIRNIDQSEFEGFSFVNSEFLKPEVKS", "summary_of_the_method": "as §1"}, "PRAK(h)": {"molecular_target": "T33, PRAK(h) (Homo sapiens, UniProt Q8IW41)", "T33 construct": "purchased Eurofins (KinaseProfiler)", "summary_of_the_method": "as §1"}, "SBK1(h)": {"molecular_target": "T34, SBK1(h) (Homo sapiens, UniProt Q52WX2)", "T34 construct": "purchased Eurofins (KinaseProfiler)", "summary_of_the_method": "as §1"}, "Rsk1(r)": {"molecular_target": "T35, Rsk1(r) (Rattus norvegicus, UniProt Q63531)", "T35 construct": "purchased Eurofins (KinaseProfiler)", "summary_of_the_method": "as §1"}, "CHK2(I157T)(h)": {"molecular_target": "T36, CHK2(I157T)(h) (Homo sapiens, UniProt O96017, I157T)", "T36 construct": "purchased Eurofins (KinaseProfiler)", "summary_of_the_method": "as §1"}, "[2]": {"molecular_target": "T37, PI3 Kinase (p110b/p85a)(h) (Homo sapiens, UniProt P42338)", "T37 construct": "purchased Eurofins (KinaseProfiler)", "summary_of_the_method": "as §1"}}, "data": [{"molecule": "Cc1cc(/C=C/C#N)cc(C)c1Nc1ccnc(Nc2ccc(C#N)cc2)n1", "note": "[rilpivirine, (E)-4-((4-((4-(2-cyanoethenyl)-2,6-dimethylphenyl)amino)pyrimidin-2-yl)amino)benzonitrile]", "values": [{"measurement": "remaining activity at 1 µM", "setting": "ErbB4(h)", "value": 88, "unit": "%"}, {"measurement": "remaining activity at 1 µM", "setting": "OSR1(h)", "value": 102, "unit": "%"}, {"measurement": "remaining activity at 1 µM", "setting": "HIPK2(h)", "value": 85, "unit": "%"}, {"measurement": "remaining activity at 1 µM", "setting": "EphA8(h)", "value": 60, "unit": "%"}, {"measurement": "remaining activity at 1 µM", "setting": "SIK3(h)", "value": 89, "unit": "%"}, {"measurement": "remaining activity at 1 µM", "setting": "PAK6(h)", "value": 117, "unit": "%"}, {"measurement": "remaining activity at 1 µM", "setting": "SRPK1(h)", "value": 84, "unit": "%"}, {"measurement": "remaining activity at 1 µM", "setting": "CaMKIIβ(h)", "value": 69, "unit": "%"}, {"measurement": "remaining activity at 1 µM", "setting": "PKCζ(h)", "value": 80, "unit": "%"}, {"measurement": "remaining activity at 1 µM", "setting": "ErbB2(h)", "value": 116, "unit": "%"}, {"measurement": "remaining activity at 1 µM", "setting": "Aurora-C(h)", "value": 93, "unit": "%"}, {"measurement": "remaining activity at 1 µM", "setting": "SGK(h)", "value": 97, "unit": "%"}, {"measurement": "remaining activity at 1 µM", "setting": "Blk(h)", "value": 73, "unit": "%"}, {"measurement": "remaining activity at 1 µM", "setting": "CaMKIγ(h)", "value": 95, "unit": "%"}, {"measurement": "remaining activity at 1 µM", "setting": "NLK(h)", "value": 64, "unit": "%"}, {"measurement": "remaining activity at 1 µM", "setting": "Flt3(h)", "value": 123, "unit": "%"}, {"measurement": "remaining activity at 1 µM", "setting": "NDR2(h)", "value": 100, "unit": "%"}, {"measurement": "remaining activity at 1 µM", "setting": "ROCK-II(r)", "value": 94, "unit": "%"}, {"measurement": "remaining activity at 1 µM", "setting": "CK1γ1(h)", "value": 80, "unit": "%"}, {"measurement": "remaining activity at 1 µM", "setting": "NEK9(h)", "value": 90, "unit": "%"}, {"measurement": "remaining activity at 1 µM", "setting": "FGFR2(h)", "value": 95, "unit": "%"}, {"measurement": "remaining activity at 1 µM", "setting": "Flt1(h)", "value": 100, "unit": "%"}, {"measurement": "remaining activity at 1 µM", "setting": "DYRK1B(h)", "value": 72, "unit": "%"}, {"measurement": "remaining activity at 1 µM", "setting": "cKit(D816H)(h)", "value": 89, "unit": "%"}, {"measurement": "remaining activity at 1 µM", "setting": "LATS2(h)", "value": 80, "unit": "%"}, {"measurement": "remaining activity at 1 µM", "setting": "Pim-3(h)", "value": 89, "unit": "%"}, {"measurement": "remaining activity at 1 µM", "setting": "Hck(h)", "value": 50, "unit": "%"}, {"measurement": "remaining activity at 1 µM", "setting": "STK32A(h)", "value": 89, "unit": "%"}, {"measurement": "remaining activity at 1 µM", "setting": "TAO1(h)", "value": 41, "unit": "%"}, {"measurement": "remaining activity at 1 µM", "setting": "GRK7(h)", "value": 70, "unit": "%"}, {"measurement": "remaining activity at 1 µM", "setting": "TAF1L(h)", "value": 55, "unit": "%"}, {"measurement": "remaining activity at 1 µM", "setting": "[1]", "value": 97, "unit": "%"}, {"measurement": "remaining activity at 1 µM", "setting": "PKCβII(h)", "value": 94, "unit": "%"}, {"measurement": "remaining activity at 1 µM", "setting": "PRAK(h)", "value": 100, "unit": "%"}, {"measurement": "remaining activity at 1 µM", "setting": "SBK1(h)", "value": 100, "unit": "%"}, {"measurement": "remaining activity at 1 µM", "setting": "Rsk1(r)", "value": 90, "unit": "%"}, {"measurement": "remaining activity at 1 µM", "setting": "CHK2(I157T)(h)", "value": 97, "unit": "%"}, {"measurement": "remaining activity at 1 µM", "setting": "[2]", "value": 104, "unit": "%"}]}]}
